The values that follow come from patent US20130108645A1, “METHODS FOR ENHANCING AXONAL REGENERATION” (THE JOHNS HOPKINS UNIVERSITY, priority 2010, published 2013).

In one data set the test system is WT DRG explants. The data set is described as follows: Axonal outgrowth of dorsal root ganglia (DRG) explants. To be noted: 50 nM, 4 days post culture.
The test system of another data set is WT mice. The data set is described as follows: Sciatic nerve crush in WT mice with systemic BACE1 inhibitor infusion via Alzet pumps. The class given is in vivo, mouse. The text has this:
The inhibitors were systemically administered via subcutaneous catheters from Alzet pumps implanted in the interscapular space for 7 or 15 days.
Mice were deeply anesthetized with isoflurane and left sciatic nerves in the mid thigh or at the sciatic notch level were exposed and crushed by pulling tight a loop of 8-0 nylon black sutures for 30-40 seconds. The crush sites were marked with a 10-0 nylon black suture going through the epineurium only. For sciatic nerve transection, a small ˜2 mm piece of nerve was dissected out and the two nerve stumps were turned away from each other to prevent axonal regeneration to distal stumps. The distal stumps and contralateral nerves were collected 1-15 days post-transection.
Alzet pumps were filled, primed, and implanted as previously described in Farah, J. Neurosci. […] Neurol. […] The latter compound was synthesized by the NeuroTranslational team at the Brain Science Institute at Johns Hopkins University. Both inhibitors were dissolved in DMSO. According to the manufacturer's data, the pump continuously supplied 1-30 μg/hour of inhibitor for 7 days. To minimize the delay between implantation and the onset of release, the filled pumps were incubated in 1×PBS at 37° C. for 4 hours immediately before implantation. The mice were anesthetized by inhalation of isoflurane, and an incision, about 1.5 cm long, was made in the skin on top of the interscapular space. A filled Alzet pump was implanted subcutaneously into each mouse and incisions were closed with 9 mm stainless steel wound clips.
For fluorescent microscopy and immunostaining, mice were deeply anesthetized with 10% chloral hydrate and killed by transcardial perfusion with 1×PBS followed by 2% paraformaldehyde in […] phosphate buffer, pH 7.4, for 10-15 minutes. Tissues were then postfixed in the same fixative for 4-16 hr at 4° C. Sciatic nerves and gastrocnemius muscles were cryoprotected in 30% sucrose in 1×PBS overnight and quickly frozen in cold 2-methylbutane. Tissues were frozen sectioned on a cryostat at thickness of 10 or 20 μm for sciatic nerves and 50 μm for gastrocnemius muscles. In addition, the hind feet were decalcified, cryoprotected in 30% sucrose in 1×PBS, and sectioned at 50 μm thickness. Sciatic nerves were sectioned longitudinally using a Leica cryostat (model CM3050S, Leica Microsystems, Buffalo Grove, Ill.). Gastrocnemius muscles and foot were cross-sectioned by a freezing sliding microtome (Microm HM 450, Thermo Scientific, Waltham, Mass.).
To visualize YFP-positive degenerating and regenerating axons, animals were perfused as described above and sciatic nerves were collected. Whole-mounted sciatic nerves were imaged under a confocal microscope and Z-stack images were collected through the depth of the nerves.
For ultrastructural analyses, nerves were postfixed in OsO4 and embedded in Epon. Cross sections, at 1 μm thickness, were stained for toluidine blue and examined under light microscopy with 100× oil-immersion objective. 70 nm thin sections were obtained and stained for citrate/uranyl acetate. Electron micrographs were acquired using a Hitachi 7600 or Zeiss Libra transmission electron microscope.

The nature of data set [1]: Paclitaxel administration, body weight. In kind it is in vivo, mouse. To be noted: 30 mg/kg intravenously via tail vein, 3 times a week for 2 weeks; WT and BACE1 KO mice. The procedure:
Paclitaxel (LC laboratories) was dissolved in 100% ethonal. Equal volumes of paclitaxel solution and cremophor (Sigma-Aldrich, St. Louis, Mo.) were vigorously vortexed for 10 minutes. Ice cold saline (80% of the final volume) was added to freshly made paclitaxel/cremophor solution immediately before injection. 30 mg/kg body weight of paclitaxel in this solution was injected intravenously via tail vein at 3 times a week for 2 weeks.

Experimental for WT DRG explants: Postnatal (P4-5) primary mouse DRG from WT littermate and BACE1 KO pups were established. Axonal outgrowth at 2 and 4 days post culture were measured.
Postnatal day 4-5 dorsal root ganglia (DRG) were dissected out of WT and BACE1 KO mice, and were maintained in neurobasal medium containing 2% B27 supplement and 50 ng/ml NGF (all reagents from Invitrogen, Carlsbad, Calif.). In some of the WT DRG explants, 50 nM-1 μM BACE1 inhibitor IV was added daily to the media. At least 8 explants were used for each condition. Axonal outgrowth of the DRG was monitored daily under phase-contrast microscopy, and images were acquired with Openlab software at 2 and 4 days post culture. The axon lengths were measured from the borders of the explants borders to the tips of axons using ImageJ (http://rsb.info.nih.gov/ij/).

On to `C[C@@H](NC(=O)c1cc(C(=O)N[C@@H](Cc2ccccc2)[C@H](O)CNC2CC2)cc(N(C)S(C)(=O)=O)c1)c1ccccc1` [BACE1 inhibitor IV], for which the “increase of axonal outgrowth of WT DRG explants” value with WT DRG explants was 98.0%. In the data set on WT mice (mouse, in vivo), the “YFP-positive axonal debris in whole-mounted YFP-WT nerve” value was “more fragmented”, the “post-phagocytic macrophages in electron micrograph of WT nerve” value is “More post-phagocytic macrophages”, the “regenerated YFP-positive axons in whole-mounted YFP-WT nerve” value is reported as “numerous regenerated YFP-positive axons” and the “regenerated axons in electron micrograph of WT nerve” value was “more regenerated axons”.
For `CC(=O)O[C@H]1C(=O)[C@@]2(C)[C@H]([C@H](OC(=O)c3ccccc3)[C@]3(O)C[C@H](OC(=O)[C@H](O)[C@@H](NC(=O)c4ccccc4)c4ccccc4)C(C)=C1C3(C)C)[C@]1(OC(C)=O)CO[C@@H]1C[C@@H]2O` [Paclitaxel, paclitaxel], the weight loss entry in data set [1] was “no significant weight loss”.
As to `COc1ccc([C@]2(c3ccc(F)c(-c4cccnc4F)c3)N=C(N)N(C)C2=O)cc1C` [WAY 258131], the “β tubulin III staining of intra-plantar nerves of WT foot” value in the data set with WT mice (2 weeks after sciatic nerve crush and treatment) is “β tubulin III positive fibers are regenerated axons”.
